Test system: meniscal release model of osteoarthritis
Test: Meniscal release model of osteoarthritis in dogs (Example 8)
Assay type: in vivo
Settings: 5 mg/kg daily
Method: Twenty intact adult female hounds underwent surgical meniscal release of the right stifle and were maintained for at least 8 weeks to allow osteoarthritis to develop. […] Animals were randomized into three groups: negative control (n=6), positive control (n=7) treated with 5 mg/kg firocoxib daily, and grapiprant (n=7) dosed once daily at 30 mg/kg. Dosing was based on baseline bodyweight.
Baseline physical exams, bodyweights, hematology, serum chemistry and urinalysis were obtained on study Day −1 and repeated on Day 13. Orthopedic assessments were conducted on Day −1, Day 2, Day 6, and Day 13, including a kinetics assessment using the GAITRite system to determine left hindlimb: right hindlimb ratios for peak pressure, stride length, step length, and stance time, a 5-point scale lameness evaluation, VAS assessments of right hindlimb function, right stifle pain and effusion, and comfortable range of motion measurements of both stifles using a goniometer.

For CC1(C)OC(=O)C(OCC2CC2)=C1c1ccc(S(C)(=O)=O)cc1 [firocoxib, reference compound], the “peak pressure ratios, lameness and function scores compared to baseline” value was “improved statistically significant mean peak pressure ratios on Day 13 and in mean lameness and mean function scores on Day 6 and 13 compared to baseline”.

Reference: patent US12109218B2, “Compositions of grapiprant and methods for using the same” (ARATANA THERAPEUTICS, INC., priority 2014, dated 2024)
